In US9163256B2, “Mutant receptors and their use in a nuclear receptor-based inducible gene expression system” (priority 2004, dated 2015):
Values joined by “and” are separate entries in the source; they are usually repeats but may differ in a detail not shown here. Equal values may be shown once.

How the values were obtained:
Experiment in all cases: cell-based
CfEcR-DEF mutant A110E = CfEcR-DEF mutant A110E (Choristoneura fumiferana, UniProt O77255, A393E)
Summary of the method: (§1)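 Mutant CfEcR-DEF receptor and GAL4-driven luciferase reporter constructs transfected into mouse NIH3T3 cells with DMSO or ligand added; maintained 48 h at 37° C in 5% FBS, harvested 40 h after ligand addition. Dual-luciferase read-out; fold induction = RLU with ligand / RLU with DMSO.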

CfEcR-DEF mutant A110W = CfEcR-DEF mutant A110W (Choristoneura fumiferana, UniProt O77255, A393W)
Summary of the method: as §1

CfEcR-DEF mutant F109N = CfEcR-DEF mutant F109N (Choristoneura fumiferana, UniProt O77255, F392N)
Summary of the method: as §1

CfEcR-DEF mutant F109W = CfEcR-DEF mutant F109W (Choristoneura fumiferana, UniProt O77255, F392W)
CfEcR-DEF mutant F109W, sequence (O77255 entry or part of it F392W): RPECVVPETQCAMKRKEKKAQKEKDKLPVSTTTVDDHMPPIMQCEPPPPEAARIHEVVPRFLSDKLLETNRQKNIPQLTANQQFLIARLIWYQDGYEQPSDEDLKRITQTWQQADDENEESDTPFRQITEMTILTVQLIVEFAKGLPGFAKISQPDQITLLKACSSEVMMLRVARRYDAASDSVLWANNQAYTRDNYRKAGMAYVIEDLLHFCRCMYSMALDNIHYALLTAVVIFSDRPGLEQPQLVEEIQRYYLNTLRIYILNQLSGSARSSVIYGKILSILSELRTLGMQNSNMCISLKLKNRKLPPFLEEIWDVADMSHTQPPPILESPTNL
CfEcR-DEF mutant F109W, sequence (P28702 299-449, further chain): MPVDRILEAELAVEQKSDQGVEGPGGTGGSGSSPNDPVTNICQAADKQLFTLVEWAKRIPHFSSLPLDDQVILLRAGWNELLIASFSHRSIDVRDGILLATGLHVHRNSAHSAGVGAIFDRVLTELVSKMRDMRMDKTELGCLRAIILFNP
Summary of the method: as §1

CfEcR-DEF mutant I51L = CfEcR-DEF mutant I51L (Choristoneura fumiferana, UniProt O77255, I334L)
CfEcR-DEF mutant I51L, sequence (O77255 entry or part of it I334L): as the sequence (O77255 entry or part of it F392W) above, with I128L, W186F counted along it
CfEcR-DEF mutant I51L, sequence (P28702 299-449, further chain): as the sequence (P28702 299-449, further chain) above
Summary of the method: as §1

CfEcR-DEF mutant L132V = CfEcR-DEF mutant L132V (Choristoneura fumiferana, UniProt O77255, L415V)
CfEcR-DEF mutant L132V, sequence (O77255 entry or part of it L415V): as the sequence (O77255 entry or part of it F392W) above, with W186F, L209V counted along it
CfEcR-DEF mutant L132V, sequence (P28702 298-449, further chain): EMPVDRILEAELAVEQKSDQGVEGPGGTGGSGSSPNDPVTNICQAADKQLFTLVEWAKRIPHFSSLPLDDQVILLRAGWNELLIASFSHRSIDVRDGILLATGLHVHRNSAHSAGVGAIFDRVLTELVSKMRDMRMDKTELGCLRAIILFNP
Summary of the method: as §1

CfEcR-DEF mutant L234M = CfEcR-DEF mutant L234M (Choristoneura fumiferana, UniProt O77255, L517M)
Summary of the method: as §1

CfEcR-DEF mutant M125C = CfEcR-DEF mutant M125C (Choristoneura fumiferana, UniProt O77255, M408C)
CfEcR-DEF mutant M125C, sequence (O77255 entry or part of it M408C): as the sequence (O77255 entry or part of it F392W) above, with W186F, M202C counted along it
CfEcR-DEF mutant M125C, sequence (P28702 299-449, further chain): as the sequence (P28702 299-449, further chain) above
Summary of the method: as §1

CfEcR-DEF mutant M125L = CfEcR-DEF mutant M125L (Choristoneura fumiferana, UniProt O77255, M408L)
Summary of the method: as §1

CfEcR-DEF mutant M125P = CfEcR-DEF mutant M125P (Choristoneura fumiferana, UniProt O77255, M408P)
Summary of the method: as §1

CfEcR-DEF mutant M125R = CfEcR-DEF mutant M125R (Choristoneura fumiferana, UniProt O77255, M408R)
Summary of the method: as §1

CfEcR-DEF mutant M54T = CfEcR-DEF mutant M54T (Choristoneura fumiferana, UniProt O77255, M337T)
CfEcR-DEF mutant M54T, sequence (O77255 entry or part of it M337T): as the sequence (O77255 entry or part of it F392W) above, with M131T, W186F counted along it
CfEcR-DEF mutant M54T, sequence (P28702 299-449, further chain): as the sequence (P28702 299-449, further chain) above
Summary of the method: as §1

CfEcR-DEF mutant M54W = CfEcR-DEF mutant M54W (Choristoneura fumiferana, UniProt O77255, M337W)
Summary of the method: as §1

CfEcR-DEF mutant M92E = CfEcR-DEF mutant M92E (Choristoneura fumiferana, UniProt O77255, M375E)
Summary of the method: as §1

CfEcR-DEF mutant M92L = CfEcR-DEF mutant M92L (Choristoneura fumiferana, UniProt O77255, M375L)
CfEcR-DEF mutant M92L, sequence (O77255 entry or part of it M375L): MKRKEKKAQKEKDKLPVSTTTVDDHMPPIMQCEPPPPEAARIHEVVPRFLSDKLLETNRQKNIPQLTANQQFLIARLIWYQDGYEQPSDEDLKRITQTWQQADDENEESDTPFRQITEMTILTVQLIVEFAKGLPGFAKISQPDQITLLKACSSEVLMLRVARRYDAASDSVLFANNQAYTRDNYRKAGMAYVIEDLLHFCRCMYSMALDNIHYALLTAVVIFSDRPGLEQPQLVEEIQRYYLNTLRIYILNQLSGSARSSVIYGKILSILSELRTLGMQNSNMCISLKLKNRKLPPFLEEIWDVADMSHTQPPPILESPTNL
CfEcR-DEF mutant M92L, sequence (P28702 299-449, further chain): as the sequence (P28702 299-449, further chain) above
Summary of the method: as §1

CfEcR-DEF mutant R95M = CfEcR-DEF mutant R95M (Choristoneura fumiferana, UniProt O77255, R378M)
Summary of the method: as §1

CfEcR-DEF mutant R95W = CfEcR-DEF mutant R95W (Choristoneura fumiferana, UniProt O77255, R378W)
CfEcR-DEF mutant R95W, sequence (O77255 entry or part of it R378W): as the sequence (O77255 entry or part of it M375L) above, with L157M, R160W counted along it
CfEcR-DEF mutant R95W, sequence (P28702 299-449, further chain): as the sequence (P28702 299-449, further chain) above
Summary of the method: as §1

CfEcR-DEF mutant T52L = CfEcR-DEF mutant T52L (Choristoneura fumiferana, UniProt O77255, T335L)
CfEcR-DEF mutant T52L, sequence (P28702 298-449): as the sequence (P28702 298-449, further chain) above
CfEcR-DEF mutant T52L, sequence (O77255 entry or part of it T335L): as the sequence (O77255 entry or part of it F392W) above, with T129L, W186F counted along it
Summary of the method: as §1

CfEcR-DEF mutant V96L = CfEcR-DEF mutant V96L (Choristoneura fumiferana, UniProt O77255, V379L)
CfEcR-DEF mutant V96L, sequence (O77255 entry or part of it V379L): as the sequence (O77255 entry or part of it M375L) above, with L157M, V161L counted along it
CfEcR-DEF mutant V96L, sequence (P28702 299-449, further chain): as the sequence (P28702 299-449, further chain) above
Summary of the method: as §1

CfEcR-DEF mutant V96W = CfEcR-DEF mutant V96W (Choristoneura fumiferana, UniProt O77255, V379W)
Summary of the method: as §1

CfEcR-DEF mutant W238P = CfEcR-DEF mutant W238P (Choristoneura fumiferana, UniProt O77255, W521P)
Summary of the method: as §1

CfEcR-DEF mutant Y120W = CfEcR-DEF mutant Y120W (Choristoneura fumiferana, UniProt O77255, Y403W)
Summary of the method: as §1

[1] = NIH3T3, 40 h, read-out: Rel Max FI
[2] = NIH3T3, mouse, 40 h, read-out: GS-E ligand max FI (relative to DMSO)

`CCc1c(OC)cccc1C(=O)NN(C(=O)c1cc(C)cc(C)c1)C(C)(C)C` [RG-102240, N-(2-ethyl-3-methoxybenzoyl)-N′-(3,5-dimethylbenzoyl)-N′-tert-butylhydrazine] showed an EC50 (CfEcR-DEF mutant A110E) of 590 nM, an Emax (CfEcR-DEF mutant A110E; [1]) of 100% and a maximal fold induction (CfEcR-DEF mutant A110E; [2]) of 4930. For the same compound, the “Concentration (mM) at max FI” value (CfEcR-DEF mutant A110E; mutant A110E, GS-E ligand) was 10.00 mM, the EC50 (CfEcR-DEF mutant A110W) was 1370 nM and the Emax (CfEcR-DEF mutant A110W; [1]) was 100%. The maximal fold induction (CfEcR-DEF mutant A110W; [2]) was 5210, the “Concentration (mM) at max FI” value (CfEcR-DEF mutant A110W; mutant A110W, GS-E ligand) was 10.00 mM and the EC50 (CfEcR-DEF mutant F109N) was 2700 nM. For the same compound, the Emax (CfEcR-DEF mutant F109N; [1]) was 100%, the maximal fold induction (CfEcR-DEF mutant F109N; [2]) was 1510 and the “Concentration (mM) at max FI” value (CfEcR-DEF mutant F109N; mutant F109N, GS-E ligand) was 0.0333 mM. For the same compound, the EC50 (CfEcR-DEF mutant F109W) was 610 nM, the Emax (CfEcR-DEF mutant F109W; [1]) was 100% and the maximal fold induction (CfEcR-DEF mutant F109W; [2]) was 3060. The “Concentration (mM) at max FI” value (CfEcR-DEF mutant F109W; mutant F109W, GS-E ligand) was 10.00 mM, the EC50 (CfEcR-DEF mutant I51L) was 3200 nM and the Emax (CfEcR-DEF mutant I51L; [1]) was 100%. For the same compound, the maximal fold induction (CfEcR-DEF mutant I51L; [2]) was 2480, the “Concentration (mM) at max FI” value (CfEcR-DEF mutant I51L; mutant I51L, GS-E ligand) was 33.30 mM and the EC50 (CfEcR-DEF mutant L132V) was 2320 nM. For the same compound, the Emax (CfEcR-DEF mutant L132V; [1]) was 100%, the maximal fold induction (CfEcR-DEF mutant L132V; [2]) was 2130 and the “Concentration (mM) at max FI” value (CfEcR-DEF mutant L132V; mutant L132V, GS-E ligand) was 0.01 mM. It also gave an EC50 (CfEcR-DEF mutant L234M) of 1430 nM, an Emax (CfEcR-DEF mutant L234M; [1]) of 100% and a maximal fold induction (CfEcR-DEF mutant L234M; [2]) of 4580. The “Concentration (mM) at max FI” value (CfEcR-DEF mutant L234M; mutant L234M, GS-E ligand) was 33.30 mM, the EC50 (CfEcR-DEF mutant M125C; EC50, mutant M125C) was ~8000 nM and > 33000 nM and the Emax (CfEcR-DEF mutant M125C; [1]) was 100%. The maximal fold induction (CfEcR-DEF mutant M125C; [2]) was 9, the “Concentration (mM) at max FI” value (CfEcR-DEF mutant M125C; mutant M125C, GS-E ligand) was 33.3 mM and the EC50 (CfEcR-DEF mutant M125L) was about 10000 nM. For the same compound, the Emax (CfEcR-DEF mutant M125L; [1]) was 100%, the maximal fold induction (CfEcR-DEF mutant M125L; [2]) was 2250 and the “Concentration (mM) at max FI” value (CfEcR-DEF mutant M125L; mutant M125L, GS-E ligand) was 0.0333 mM. It also gave an EC50 (CfEcR-DEF mutant M125P) of over 33000 nM, an Emax (CfEcR-DEF mutant M125P; [1]) of 100% and a maximal fold induction (CfEcR-DEF mutant M125P; [2]) of 1. For the same compound, the “Concentration (mM) at max FI” value (CfEcR-DEF mutant M125P; mutant M125P, GS-E ligand) was 0.0333 mM, the EC50 (CfEcR-DEF mutant M125R) was 3700 nM and the Emax (CfEcR-DEF mutant M125R; [1]) was 0%. For the same compound, the maximal fold induction (CfEcR-DEF mutant M125R; [2]) was 2410, the “Concentration (mM) at max FI” value (CfEcR-DEF mutant M125R; mutant M125R, GS-E ligand) was 33.3 mM and the EC50 (CfEcR-DEF mutant M54T) was 80 nM. For the same compound, the Emax (CfEcR-DEF mutant M54T; [1]) was 100%, the maximal fold induction (CfEcR-DEF mutant M54T; [2]) was 4460 and the “Concentration (mM) at max FI” value (CfEcR-DEF mutant M54T; mutant M54T, GS-E ligand) was 10.00 mM. It also gave an EC50 (CfEcR-DEF mutant M54W) of 1170 nM, an Emax (CfEcR-DEF mutant M54W; [1]) of 100% and a maximal fold induction (CfEcR-DEF mutant M54W; [2]) of 1680. The “Concentration (mM) at max FI” value (CfEcR-DEF mutant M54W; mutant M54W, GS-E ligand) was 0.01 mM, the EC50 (CfEcR-DEF mutant M92E) was about 8000 nM and the Emax (CfEcR-DEF mutant M92E; [1]) was 100%. For the same compound, the maximal fold induction (CfEcR-DEF mutant M92E; [2]) was 141, the “Concentration (mM) at max FI” value (CfEcR-DEF mutant M92E; mutant M92E, GS-E ligand) was 0.0333 mM and the EC50 (CfEcR-DEF mutant M92L) was about 8000 nM. For the same compound, the Emax (CfEcR-DEF mutant M92L; [1]) was 100%, the maximal fold induction (CfEcR-DEF mutant M92L; [2]) was 1200 and the “Concentration (mM) at max FI” value (CfEcR-DEF mutant M92L; mutant M92L, GS-E ligand) was 33.30 mM. The EC50 (CfEcR-DEF mutant R95M) was 2760 nM, the Emax (CfEcR-DEF mutant R95M; [1]) was 100% and the maximal fold induction (CfEcR-DEF mutant R95M; [2]) was 1690. The “Concentration (mM) at max FI” value (CfEcR-DEF mutant R95M; mutant R95M, GS-E ligand) was 33.30 mM, the EC50 (CfEcR-DEF mutant R95W) was about 7000 nM and the Emax (CfEcR-DEF mutant R95W; [1]) was 100%. The maximal fold induction (CfEcR-DEF mutant R95W; [2]) was 1820, the “Concentration (mM) at max FI” value (CfEcR-DEF mutant R95W; mutant R95W, GS-E ligand) was 33.30 mM and the EC50 (CfEcR-DEF mutant T52L) was about 500 nM. The Emax (CfEcR-DEF mutant T52L; [1]) was 100%, the maximal fold induction (CfEcR-DEF mutant T52L; [2]) was 1130 and the “Concentration (mM) at max FI” value (CfEcR-DEF mutant T52L; mutant T52L, GS-E ligand) was 33.3 mM. It also gave an EC50 (CfEcR-DEF mutant V96L) of about 1000 nM, an Emax (CfEcR-DEF mutant V96L; [1]) of 100% and a maximal fold induction (CfEcR-DEF mutant V96L; [2]) of 4380. For the same compound, the “Concentration (mM) at max FI” value (CfEcR-DEF mutant V96L; mutant V96L, GS-E ligand) was 10 mM, the EC50 (CfEcR-DEF mutant V96W) was about 1000 nM and the Emax (CfEcR-DEF mutant V96W; [1]) was 100%. The maximal fold induction (CfEcR-DEF mutant V96W; [2]) was 615, the “Concentration (mM) at max FI” value (CfEcR-DEF mutant V96W; mutant V96W, GS-E ligand) was 33.3 mM and the EC50 (CfEcR-DEF mutant W238P) was about 400 nM. For the same compound, the Emax (CfEcR-DEF mutant W238P; [1]) was 100%, the maximal fold induction (CfEcR-DEF mutant W238P; [2]) was 4810 and the “Concentration (mM) at max FI” value (CfEcR-DEF mutant W238P; mutant W238P, GS-E ligand) was 10 mM. The EC50 (CfEcR-DEF mutant Y120W) was 4210 nM, the Emax (CfEcR-DEF mutant Y120W; [1]) was 100% and the maximal fold induction (CfEcR-DEF mutant Y120W; [2]) was 1890.
